Laboratory results reported in patent US9745357B2, “Peptides used for treating cancers and, in particular, chronic lymphoid leukaemia” (Centre National de la Recherche Scientifique, priority 2009, dated 2017).
No end group written: not given here.

Tests used:
[1] = tested on: B-cell prolymphocytic leukemia cells; type: cell-based, human; conditions: 24 h
Description: (§1) FIG. 7: Activity of the A1WT peptide on cells of lymphocytic, lymphoid, gastric, colonic or renal origin The cells are prepared and placed in culture (see Materials and Methods) and then incubated for 4 H with the A1WT or A1 YALA peptide. The percentage cell survival corresponds to the percentage of cells labeled neither with annexin nor with propidium iodide, evaluated by flow cytometry. The names of the pathological conditions from which the patients from whom the samples are taken are suffering are indicated under the figure. The control T (L.T.) and B (L.B.) lymphocytes are taken from patients suffering from a disease not related to a lymphocytic pathological condition (hemochromatosis).
(§2) The cells were cultured in a culture medium composed either of RPMI 1640 (B lymphocytes) or of DMEM (COS7, HCT116, HGT1, 293, HeLa) containing 10% of FCS (fetal calf serum, 1% of penicillin-streptomycin and 1% of glutamine, Gibco BRL). The cells are distributed in a 24-well plate and cultured at 37° C. in a humid atmosphere under 5% CO2.
(§3) 400 μl of cell suspension (1×10^6 cells/ml) per well were treated for 4 h or 24 h with various concentrations of peptides. The test for activity of the peptides in the presence of emetine (FIG. 6) was carried out by preincubating the cells with 100 μM of emetine for one hour before the addition of peptide.
(§4) After the cells have been washed with PBS, they were analyzed using the Annexin V-FITC IP system according to the supplier's recommendations (Beckman Coulter).
(§5) The cells of lymphoid origin all originated from samples taken from patients suffering from various pathological conditions classified according to the seat of the tumor proliferation. This proliferation takes place either in the bone marrow, for CLL, B-cell prolymphocytic leukemia and T-cell acute lymphoblastic leukemia (T-ALL); or in the lymph nodes for mantle cell lymphoma and marginal zone lymphoma. A classification can also be carried out according to the cell type affected: B lymphocytes (CLL, B-cell prolymphocytic leukemia, mantle cell lymphoma and marginal zone lymphoma) or T lymphocytes (T-ALL).

[2] = tested on: marginal zone lymphoma (MZL) cells; type: cell-based, human; conditions: 4 h, 40 μM
Description: as §1, §2, §3, §4, §5

[3] = tested on: mantle cell lymphoma cells; type: cell-based, human; conditions: 4 h, 40 μM
Description: as §1, §2, §3, §4, §5

[4] = tested on: T lymphocytes from a patient suffering from T-cell acute lymphoblastic leukemia (T-ALL); type: cell-based, human; conditions: FIG. 7, 4 H incubation
Description: as §1, §2, §3, §4, §5

[5] = tested on: cap-dependent translation (eIF4E-dependent); assay: Effect of the peptides on translation of capped luciferase mRNA in rabbit reticulocyte lysate; type: biochemical; conditions: 50 μM peptide, compared with DMSO = 100%; FIG. 2
Description: The peptides having the IRS motif and the sequences of 4EBPlike type (A1WT, BPSgWT, and BP2WT) or the mutant sequences of 4EPBlike type (A1YALA, BPSgYALA, BP2YALA) are incubated in rabbit reticulocyte lysate containing capped mRNAs encoding luciferase, an enzyme of which the activity can be easily assayed. The translational activity is directly proportional to the activity of the luciferase produced. The translational activity in the presence of peptide is compared with that obtained during the addition of an equivalent volume of DMSO, considered to be 100%.
The peptides were produced, purified by HPLC (purity>95%), and freeze-dried by Thermofisher Scientific. The peptides were then dissolved at 10 mM in DMSO.
The capped mRNAs encoding Renilla luciferase (Luc R) were produced by the T7 Message Machine Kit system (Ambion) from the pGb-Eg2-410Δ2-hxG-A65 plasmid linearized with EcoRV (Legagneux V, Omilli F, Osborne HB (1995) Substrate-specific regulation of RNA deadenylation in Xenopus embryo and activated egg extracts. RNA 1: 1001-1008).
The Luc R mRNAs were translated for one hour at 30° C. in rabbit reticulocyte lysate (Flexi Rabbit Reticulocyte Lysate System, Promega) in the presence of 50 μM of peptide. The luciferase activity was determined using the Renilla luciferase assay (Promega) on the Tristar LB941 luminometer (Berthold).
A capped mRNA (having a cap at the 5′ end) encoding luciferase, a protein which can be easily assayed by measuring its activity, was translated in the presence of these various peptides in rabbit reticulocyte lysate (FIG. 2). The luciferase activity measured is directly proportional to the amount of luciferase protein produced and therefore to the cap-dependent translational activity. Since the peptides are dissolved in DMSO, it was important to test the effect of DMSO on the translation. […] The translational activity in the presence of peptide was compared with that obtained when an equal volume of DMSO is added, considered to be equal to 100%.

RRKYGRDFLLRFRYIRS [A1 WT IRS, RRKYGRDFLLRFRYIRS]
cell survival [1]: 20%
survival rate [2]: approximately 30%
survival rate [3]: approximately 30%
effect on cell survival [4]: as great as for the CLL cells
inhibition of translation (luciferase activity) [5]: more substantially inhibits the translation
